# According to publication PMC9467556, “Identification of novel pyrrolopyrimidine and pyrrolopyridine derivatives as potent ENPP1 inhibitors” (Journal of Enzyme Inhibition and Medicinal Chemistry, 2022):
# Structures can show the parent of a compound that is named as a salt.
# What was measured:
# [1] = system: interferon stimulated genes (ISG) CXCL10, OAS1, IFITM1 in THP-1 cells; experiment: real-time PCR of interferon stimulated genes; type: cell-based, human; settings: co-treatment with cGAMP, 4 h, normalized by GAPDH
# Procedure: Next, we further explored type I IFN response induced by activation of STING signalling. The gene expression for various interferon stimulated genes (ISGs) such as CXCL10, OAS1, and IFITM1 was analysed by real-time PCR.
# Figure 5. Real-time PCR analysis for gene expression of various interferon stimulated genes (ISG), CXCL10, OAS1, and IFITM1. THP-1 cells were stimulated by indicated concentration of 18p for 4 h. The relative gene expression level was normalized by GAPDH as an internal standard. Graphs depict mean and RQ max values.
# Cells were harvest and RNA were isolated using NucleoSpin RNA plus (MN) according to the manufacturer’s instructions. Genomic DNA was removed and cDNA was synthesised using an iScript gDNA clear cDNA synthesis kit (Bio-Rad). Expression levels were assessed by real-time PCR (CFX96 Real-Time PCR detection system, Bio-rad) using IQ SYBR green Supermix (Bio-Rad). The mRNA levels were normalized by GAPDH and calculated by comparative Ct method.
# CYP2D6 = CYP2D6 (Homo sapiens, UniProt P10635); experiment: CYP inhibition profile; type: in vitro ADME; settings: compound 10 μM
# Source text: Table 3. CYP inhibition profile. | column: % inhibition / CYP2D6
# THP-1 cells = experiment: cell viability assay (MTS); type: cell-based, human; settings: all concentrations tested
# Procedure: Cell viability assay was performed using residual cells after luciferase assay. Cells were analysed using CellTiter 96 Aqueous One Solution Proliferation Assay (MTS, Promega) according to the manufactural protocols. Absorbance signal were measured using microplate reader (TECAN). Results were normalized using DMSO as a control.
# CYP2C19 = CYP2C19 (Homo sapiens, UniProt P33261); experiment: CYP inhibition profile; type: in vitro ADME; settings: compound 10 μM
# Source text: Table 3. CYP inhibition profile. | column: % inhibition / CYP2C19
# CYP2C9 = CYP2C9 (Homo sapiens, UniProt P11712); experiment: CYP inhibition profile; type: in vitro ADME; settings: compound 10 μM
# Source text: Table 3. CYP inhibition profile. | column: % inhibition / CYP2C9
# [2] = system: 4T1 syngeneic mouse tumour model; experiment: 4T1 syngeneic mouse tumour model efficacy; type: in vivo; settings: 40 mg/kg orally once daily, day 14, 4T1 tumour in BALB/c mice
# Procedure: (§1) Thus, we evaluated the anti-cancer efficacy in the 4T1 syngeneic mouse tumour model to test the therapeutic potential of 18p. We postulated the marginal amount of cGAMP released by tumour could initiate the synergy effect of 18p, then administrated the compound by single-treatment[5]. After 4T1 tumour cells were implanted and grown in the flank of mice, 18p was orally administered (40 mg/kg) once daily and monitored the tumour volume and body weight of each mouse.
# (§2) Figure 7. 4 × 10^5 of 4T1 cells were subcutaneously inoculated into right side flank of BLAB/c mice (n = 6). Mice were orally administrated by 18p (40 mg/kg) or vehicle by every day. (a) Tumour growth curve of 18p or vehicle. X-axis indicates days after treatment. (b) Tumour growth (%) on day 14. (c) Body weight of 18p or vehicle. X-axis indicates days after treatment. Statistics for tumour volume and tumour growth were analysed by 2way ANOVA and student t-test. *p < 0.05. **p < 0.01. Graphs are depicted by mean and SD.
# (§3) The study for murine 4T1 […] was approved by the Institutional Animal Care and Use Committee (IACUC) of the Korea Institute of Science and Technology (KIST-2021–04-048). Female BALB/c mice were 8 weeks obtained from DBL (Korea). […] Tumour volume was calculated by following formula: Tumour volume (mm^3) = 0.5 × [length, (mm) × width, (mm)2].
# [3] = system: IP-10 secretion in THP-1 cells; experiment: IP-10 cytokine secretion by ELISA; settings: co-treatment with cGAMP, 8 h
# Procedure: Extracellular secretion of IFN-β and IP-10 was measured by enzyme-linked immunosorbent assay (ELISA).
# THP-1 cells were seeded in 96 well plate and treated with the compounds for 8 h incubation. 100 μL of cell culture supernatant was harvested and analysed using manufactural protocols.
# [4] = system: ISRE-mediated reporter gene induction in THP-1 cells; experiment: ISRE/IRF luciferase reporter assay in THP-1 dual cells with cGAMP; settings: co-treatment with cGAMP (1 μg/mL), 24 h
# CYP1A2 = target: T1, CYP1A2 (Homo sapiens, UniProt P05177); experiment: CYP inhibition profile; type: in vitro ADME; settings: compound 10 μM
# T1 sequence (P05177 1-516): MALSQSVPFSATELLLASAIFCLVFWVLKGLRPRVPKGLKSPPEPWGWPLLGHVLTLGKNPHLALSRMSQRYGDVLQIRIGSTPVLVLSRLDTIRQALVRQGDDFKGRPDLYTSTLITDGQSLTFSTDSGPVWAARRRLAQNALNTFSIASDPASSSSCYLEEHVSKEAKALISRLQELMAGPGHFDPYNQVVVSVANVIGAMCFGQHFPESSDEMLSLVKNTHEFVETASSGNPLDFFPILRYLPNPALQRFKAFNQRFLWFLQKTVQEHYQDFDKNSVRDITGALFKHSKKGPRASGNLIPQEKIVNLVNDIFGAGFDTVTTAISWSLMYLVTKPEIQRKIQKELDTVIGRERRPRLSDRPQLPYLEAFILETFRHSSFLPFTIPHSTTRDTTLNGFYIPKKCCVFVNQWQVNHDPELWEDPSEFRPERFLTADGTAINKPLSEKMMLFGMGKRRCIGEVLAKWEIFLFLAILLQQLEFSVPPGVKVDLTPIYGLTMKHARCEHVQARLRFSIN
# Source text: Table 3. CYP inhibition profile. | column: % inhibition / CYP1A2
# [5] = liver microsomal stability; type: in vitro ADME, mouse; settings: % remaining during 30 min at 1 µM
# [6] = pharmacokinetics in BALB/c mice; type: in vivo
# [7] = body weight in 4T1 syngeneic mouse tumour model; type: in vivo, BALB/c mice; settings: 40 mg/kg orally once daily, two weeks, 4T1 tumour-bearing mice
# Procedure: as §1, §2, §3
# CYP3A4 = CYP3A4 (Homo sapiens, UniProt P08684); experiment: CYP inhibition profile; type: in vitro ADME; settings: compound 10 μM
# Source text: Table 3. CYP inhibition profile. | column: % inhibition / CYP3A4
# Sequence of CYP2C19 (P33261 whole entry): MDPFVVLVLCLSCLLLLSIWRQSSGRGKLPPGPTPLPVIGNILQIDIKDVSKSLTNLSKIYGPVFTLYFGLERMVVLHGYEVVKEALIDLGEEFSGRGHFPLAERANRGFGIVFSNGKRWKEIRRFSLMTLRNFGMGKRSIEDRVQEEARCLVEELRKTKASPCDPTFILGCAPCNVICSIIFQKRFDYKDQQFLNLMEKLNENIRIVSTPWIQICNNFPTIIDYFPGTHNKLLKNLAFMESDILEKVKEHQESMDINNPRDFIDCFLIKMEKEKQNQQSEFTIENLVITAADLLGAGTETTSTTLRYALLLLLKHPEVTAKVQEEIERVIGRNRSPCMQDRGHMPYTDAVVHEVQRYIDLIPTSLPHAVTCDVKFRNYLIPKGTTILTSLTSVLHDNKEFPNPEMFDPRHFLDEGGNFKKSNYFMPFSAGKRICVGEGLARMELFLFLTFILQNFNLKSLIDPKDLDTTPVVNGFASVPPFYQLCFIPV
# Sequence of CYP2C9 (P11712 whole entry): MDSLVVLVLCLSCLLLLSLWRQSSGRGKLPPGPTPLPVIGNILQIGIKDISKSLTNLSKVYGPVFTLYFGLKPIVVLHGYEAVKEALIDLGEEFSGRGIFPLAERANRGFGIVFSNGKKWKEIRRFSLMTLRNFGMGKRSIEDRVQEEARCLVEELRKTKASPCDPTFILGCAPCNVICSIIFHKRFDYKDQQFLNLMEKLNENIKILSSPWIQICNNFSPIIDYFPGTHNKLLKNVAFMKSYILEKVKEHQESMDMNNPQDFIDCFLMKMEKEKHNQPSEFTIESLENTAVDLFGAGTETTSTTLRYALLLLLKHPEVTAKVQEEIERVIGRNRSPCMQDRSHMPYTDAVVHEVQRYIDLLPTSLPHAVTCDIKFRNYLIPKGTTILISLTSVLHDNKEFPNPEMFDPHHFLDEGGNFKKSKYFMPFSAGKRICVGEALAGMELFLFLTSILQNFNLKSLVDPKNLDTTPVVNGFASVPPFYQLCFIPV
# Sequence of CYP3A4 (P08684 whole entry): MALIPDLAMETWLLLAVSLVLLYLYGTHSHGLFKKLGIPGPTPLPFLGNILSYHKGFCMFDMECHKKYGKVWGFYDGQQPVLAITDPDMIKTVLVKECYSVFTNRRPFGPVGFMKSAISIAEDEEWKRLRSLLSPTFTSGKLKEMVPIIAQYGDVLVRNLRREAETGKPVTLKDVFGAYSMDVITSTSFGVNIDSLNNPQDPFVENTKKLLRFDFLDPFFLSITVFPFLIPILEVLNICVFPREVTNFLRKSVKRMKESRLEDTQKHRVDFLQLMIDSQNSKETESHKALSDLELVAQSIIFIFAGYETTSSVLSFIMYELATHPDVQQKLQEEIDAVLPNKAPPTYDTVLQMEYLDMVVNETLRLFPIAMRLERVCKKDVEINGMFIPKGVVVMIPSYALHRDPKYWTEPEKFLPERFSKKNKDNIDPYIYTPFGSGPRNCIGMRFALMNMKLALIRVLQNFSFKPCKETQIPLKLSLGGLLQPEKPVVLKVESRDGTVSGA
# Sequence of CYP2D6 (P10635 whole entry): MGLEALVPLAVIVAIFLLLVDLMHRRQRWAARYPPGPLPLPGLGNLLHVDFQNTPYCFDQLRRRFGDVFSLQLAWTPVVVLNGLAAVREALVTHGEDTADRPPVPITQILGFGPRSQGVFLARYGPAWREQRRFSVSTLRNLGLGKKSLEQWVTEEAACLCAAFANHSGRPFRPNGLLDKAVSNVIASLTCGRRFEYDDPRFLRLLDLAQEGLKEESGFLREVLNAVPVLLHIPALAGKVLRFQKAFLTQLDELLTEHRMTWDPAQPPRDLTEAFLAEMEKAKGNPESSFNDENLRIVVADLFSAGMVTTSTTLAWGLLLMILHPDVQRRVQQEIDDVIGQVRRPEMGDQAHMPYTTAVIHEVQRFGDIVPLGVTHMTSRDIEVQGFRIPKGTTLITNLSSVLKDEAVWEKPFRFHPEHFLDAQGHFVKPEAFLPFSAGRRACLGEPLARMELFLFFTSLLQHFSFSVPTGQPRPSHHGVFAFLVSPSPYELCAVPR
smiles,measurement,setting,value
"CC1(CNS(N)(=O)=O)CCN(c2ncnc3[nH]ccc23)CC1 [18p, N-((4-Methyl-1-(7H-pyrrolo[2,3-d]pyrimidin-4-yl)piperidin-4-yl)methyl)methanesulfamide hydrochloride]","gene expression of interferon stimulated genes (CXCL10, OAS1, IFITM1)",[1],induced expression of all ISG genes we tested
same,% inhibition CYP2D6,CYP2D6,0.5%
same,cell viability / toxicity,THP-1 cells,no obvious toxicity
same,% inhibition CYP2C19,CYP2C19,10.3%
same,% inhibition CYP2C9,CYP2C9,0.0%
same,TGI,[2],39%
same,IP-10 cytokine secretion,[3],secreted more cytokine than with cGAMP alone
same,cGAMP-induced ISRE activation (luciferase signal),[4],clearly increased the cGAMP-induced ISRE activation in dose-dependent manner
same,% inhibition CYP1A2,CYP1A2,12.0%
same,Microsomal stability (%) Mouse,[5],83%
same,CI,"[6]; IV, 1 mg/kg",125 mL/min/kg
same,AUC,"[6]; mouse, plasma, IV, 1 mg/kg",126 ng·h/mL
same,AUC(0-t),"[6]; mouse, plasma, IV, 1 mg/kg",125 ng·h/mL
same,Cmax,"[6]; mouse, plasma, IV, 1 mg/kg",303 ng/mL
same,Tmax,"[6]; mouse, plasma, IV, 1 mg/kg",4.98 min
same,half-life,"[6]; mouse, plasma, IV, 1 mg/kg",15 min
same,Vd,"[6]; mouse, plasma, IV, 1 mg/kg, read-out: Vss",2.3 L/kg
same,bioavailability,"[6]; mouse, plasma, PO 10 mg/kg vs IV 1 mg/kg",> 100%
same,AUC,"[6]; mouse, plasma, PO, 10 mg/kg",1700 ng·h/mL
same,AUC(0-t),"[6]; mouse, plasma, PO, 10 mg/kg",1690 ng·h/mL
same,Cmax,"[6]; mouse, plasma, PO, 10 mg/kg",1550 ng/mL
same,Tmax,"[6]; mouse, plasma, PO, 10 mg/kg",30 min
same,half-life,"[6]; mouse, plasma, PO, 10 mg/kg",93.6 min
same,body weight,[7],no weight loss
same,% inhibition CYP3A4,CYP3A4,8.9%
